Measurements: US20220089575A1, “FARNESOID X RECEPTOR AGONISTS AND USES THEREOF” (Metacrine, Inc., priority 2017, published 2022)

Target: T1, hFXR (Homo sapiens, UniProt Q96RI1)
T1 construct: expressed in transfected cells; host or cells: CV-1 cells
T1 sequence (Q96RI1 1-486): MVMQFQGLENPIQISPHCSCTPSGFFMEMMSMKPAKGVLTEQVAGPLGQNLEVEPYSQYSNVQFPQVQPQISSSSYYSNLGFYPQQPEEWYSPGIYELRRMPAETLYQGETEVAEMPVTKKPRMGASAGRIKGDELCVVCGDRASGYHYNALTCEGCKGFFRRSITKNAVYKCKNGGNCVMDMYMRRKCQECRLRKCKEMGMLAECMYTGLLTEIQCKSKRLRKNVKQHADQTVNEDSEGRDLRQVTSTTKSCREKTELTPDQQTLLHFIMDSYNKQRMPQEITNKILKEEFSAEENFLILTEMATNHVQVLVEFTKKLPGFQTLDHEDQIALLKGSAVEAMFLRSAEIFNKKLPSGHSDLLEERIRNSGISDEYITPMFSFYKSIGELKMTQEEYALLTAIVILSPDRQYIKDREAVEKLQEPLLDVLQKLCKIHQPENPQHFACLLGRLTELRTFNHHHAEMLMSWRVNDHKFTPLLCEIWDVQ
T1 sequence (P19793 1-462 partner): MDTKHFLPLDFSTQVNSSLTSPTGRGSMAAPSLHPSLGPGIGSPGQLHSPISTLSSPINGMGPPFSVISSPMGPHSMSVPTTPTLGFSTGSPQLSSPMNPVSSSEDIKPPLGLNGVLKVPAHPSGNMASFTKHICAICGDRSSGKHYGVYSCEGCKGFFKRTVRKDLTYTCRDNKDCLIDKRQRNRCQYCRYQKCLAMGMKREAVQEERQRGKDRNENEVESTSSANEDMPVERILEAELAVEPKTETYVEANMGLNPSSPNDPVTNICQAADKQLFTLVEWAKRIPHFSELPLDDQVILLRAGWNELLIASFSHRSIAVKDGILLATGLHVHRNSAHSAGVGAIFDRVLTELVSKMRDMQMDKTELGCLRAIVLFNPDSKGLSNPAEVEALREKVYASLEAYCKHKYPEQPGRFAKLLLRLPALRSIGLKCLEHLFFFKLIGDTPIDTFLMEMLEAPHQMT
Test: In Vitro FXR Assay (TK): TK-ECRE-luc reporter in transfected CV-1 cells
Format: cell-based
Conditions: 18 hrs, luminescence, maximum efficacy of <25% of the Fexarmine control classified as '+'
Procedure, shortened: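 CV-1 cells transiently co-transfected with hFXR, hRXR, TK-ECRE-luc and pCMX-YFP plasmids in charcoal-stripped serum medium. Serially diluted compounds added, cells incubated 18 h at 37° C, then lysed and luminescence read.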

| SMILES | EC50 [nM] |
| --- | --- |
| COc1ccc([C@H]2CC[C@H](CN(c3cc(-c4cnn(C(C)C)c4)ccn3)C(=O)[C@H]3CC[C@H](OC(=O)N4CC(N(C)C)C4)CC3)CC2)nc1C [Compound 7.58, trans-4-((4-(1-Isopropyl-1H-pyrazol-4-yl)pyridin-2-yl)((trans-4-(5-methoxy-6-methylpyridin-2-yl)cyclohexyl)methyl)carbamoyl)cyclohexyl 3-(dimethylamino)azetidine-1-carboxylate] | ≤ 250 |
| COc1ccc([C@H]2CC[C@H](CN(c3cc(-c4cnn(C(C)C)c4)ccn3)C(=O)[C@H]3CC[C@H](OC(=O)N4CC(CO)C4)CC3)CC2)nc1C [Compound 7.59, trans-4-((4-(1-Isopropyl-1H-pyrazol-4-yl)pyridin-2-yl)((trans-4-(5-methoxy-6-methylpyridin-2-yl)cyclohexyl)methyl)carbamoyl)cyclohexyl 3-(hydroxymethyl)azetidine-1-carboxylate] | ≤ 250 |
| CCC1CN(C(=O)O[C@H]2CC[C@H](C(=O)N(C[C@H]3CC[C@H](c4ccc(OC)c(C)n4)CC3)c3cccc(-c4cnn(C(C)C)c4)c3)CC2)C1 [Compound 7.60, trans-4-((3-(1-Isopropyl-1H-pyrazol-4-yl)phenyl)((trans-4-(5-methoxy-6-methylpyridin-2-yl)cyclohexyl)methyl)carbamoyl)cyclohexyl 3-ethylazetidine-1-carboxylate] | ≤ 250 |
| COc1ccc([C@H]2CC[C@H](CN(c3cccc(-c4cnn(C(C)C)c4)c3)C(=O)[C@H]3CC[C@H](OC(=O)N4CC(CO)C4)CC3)CC2)nc1C [Compound 7.61, trans-4-((3-(1-Isopropyl-1H-pyrazol-4-yl)phenyl)((trans-4-(5-methoxy-6-methylpyridin-2-yl)cyclohexyl)methyl)carbamoyl)cyclohexyl 3-(hydroxymethyl)azetidine-1-carboxylate] | ≤ 250 |
| COc1ccc([C@H]2CC[C@H](CN(c3cccc(-c4coc(C5CC5)n4)c3)C(=O)[C@H]3CC[C@H](OC(=O)N4CC(O)C4)CC3)CC2)cc1C [Compound 7.62, trans-4-((3-(2-Cyclopropyloxazol-4-yl)phenyl)((trans-4-(4-methoxy-3-methylphenyl)cyclohexyl)methyl)carbamoyl)cyclohexyl 3-hydroxyazetidine-1-carboxylate] | ≤ 250 |
| CN(C)c1ccc([C@H]2CC[C@H](CN(c3cccc(-c4coc(C5CC5)n4)c3)C(=O)[C@H]3CC[C@H](OC(=O)N4CC(O)C4)CC3)CC2)cn1 [Compound 7.63, trans-4-((3-(2-Cyclopropyloxazol-4-yl)phenyl)((trans-4-(6-(dimethylamino)pyridine-3-yl)cyclohexyl)methyl)carbamoyl)cyclohexyl 3-hydroxyazetidine-1-carboxylate] | ≤ 250 |
| COc1ccc([C@H]2CC[C@H](CN(c3cccc(-c4coc(C(C)C)n4)c3)C(=O)[C@H]3CC[C@H](OC(=O)N4CC(O)C4)CC3)CC2)cc1C [Compound 7.64, trans-4-((3-(2-Isopropyloxazol-4-yl)phenyl)((trans-4-(4-methoxy-3-methylphenyl)cyclohexyl)methyl)carbamoyl)cyclohexyl 3-hydroxyazetidine-1-carboxylate] | ≤ 250 |
| COc1ccc([C@H]2CC[C@H](CN(c3cccc(-c4coc(C(C)C)n4)c3)C(=O)[C@H]3CC[C@H](OC(=O)N4CC(O)C4)CC3)CC2)nc1C [Compound 7.65, trans-4-((3-(2-Isopropyloxazol-4-yl)phenyl)((trans-4-(5-methoxy-6-methylpyridin-2-yl)cyclohexyl)methyl)carbamoyl)cyclohexyl 3-hydroxyazetidine-1-carboxylate] | ≤ 250 |
| COc1ccc([C@H]2CC[C@H](CN(c3cccc(-c4coc(C5CC5)n4)c3)C(=O)[C@H]3CC[C@H](OC(=O)N4CC(O)C4)CC3)CC2)nc1C [Compound 7.66, trans-4-((3-(2-Cyclopropyloxazol-4-yl)phenyl)((trans-4-(5-methoxy-6-methylpyridin-2-yl)cyclohexyl)methyl)carbamoyl)cyclohexyl 3-hydroxyazetidine-1-carboxylate] | ≤ 250 |
| COc1ccc([C@H]2CC[C@H](CN(c3cc(-c4coc(C5CC5)n4)ccn3)C(=O)[C@H]3CC[C@H](OC(=O)N4CC(O)C4)CC3)CC2)cc1C [Compound 7.67, trans-4-((4-(2-Cyclopropyloxazol-4-yl)pyridine-2-yl)((trans-4-(4-methoxy-3-methylphenyl)cyclohexyl)methyl)carbamoyl)cyclohexyl 3-hydroxyazetidine-1-carboxylate] | ≤ 250 |
| COc1ccc([C@H]2CC[C@H](CN(c3cccc(-c4coc(C5CC5)n4)c3)C(=O)[C@H]3CC[C@H](OC(=O)N4CC(O)C4)CC3)CC2)cc1C#N [Compound 7.68, trans-4-(((trans-4-(3-Cyano-4-methoxyphenyl)cyclohexyl)methyl)(3-(2-cyclopropyloxazol-4-yl)phenyl)carbamoyl)cyclohexyl 3-hydroxyazetidine-1-carboxylate] | ≤ 250 |
| COc1ccc([C@H]2CC[C@H](CN(c3cc(-c4coc(C5CC5)n4)ccn3)C(=O)[C@H]3CC[C@H](OC(=O)N4CC(O)C4)CC3)CC2)cc1C#N [Compound 7.69, trans-4-(((trans-4-(3-Cyano-4-methoxyphenyl)cyclohexyl)methyl)(4-(2-cyclopropyloxazol-4-yl)pyridine-2-yl)carbamoyl)cyclohexyl 3-hydroxyazetidine-1-carboxylate] | ≤ 250 |
| COc1ccc([C@H]2CC[C@H](CN(c3cccc(-c4coc(C5CC5)n4)c3)C(=O)[C@H]3CC[C@H](OC(=O)N4CC(O)C4)CC3)CC2)nc1C#N [Compound 7.70, trans-4-(((trans-4-(6-Cyano-5-methoxypyridin-2-yl)cyclohexyl)methyl)(3-(2-cyclopropyloxazol-4-yl)phenyl)carbamoyl)cyclohexyl 3-hydroxyazetidine-1-carboxylate] | ≤ 250 |
| COc1ccc([C@H]2CC[C@H](CN(c3cc(-c4coc(C(C)C)n4)ccn3)C(=O)[C@H]3CC[C@H](OC(=O)N4CC(O)C4)CC3)CC2)nc1C [Compound 7.71, trans-4-((4-(2-Isopropyloxazol-4-yl)pyridine-2-yl)((trans-4-(5-methoxy-6-methylpyridin-2-yl)cyclohexyl)methyl)carbamoyl)cyclohexyl 3-hydroxyazetidine-1-carboxylate] | ≤ 250 |
| COc1ccc([C@H]2CC[C@H](CN(c3cc(-c4coc(C5CC5)n4)ccn3)C(=O)[C@H]3CC[C@H](OC(=O)N4CC(O)C4)CC3)CC2)nc1C#N [Compound 7.72, trans-4-(((trans-4-(6-Cyano-5-methoxypyridin-2-yl)cyclohexyl)methyl)(4-(2-cyclopropyloxazol-4-yl)pyridine-2-yl)carbamoyl)cyclohexyl 3-hydroxyazetidine-1-carboxylate] | ≤ 250 |
| COc1ccc([C@H]2CC[C@H](CN(c3cc(-c4coc(C(C)C)n4)ccn3)C(=O)[C@H]3CC[C@H](OC(=O)N4CC(O)C4)CC3)CC2)cc1C#N [Compound 7.73, trans-4-(((trans-4-(3-Cyano-4-methoxyphenyl)cyclohexyl)methyl)(4-(2-isopropyloxazol-4-yl)pyridine-2-yl)carbamoyl)cyclohexyl 3-hydroxyazetidine-1-carboxylate] | ≤ 250 |
| COc1ccc([C@H]2CC[C@H](CN(c3cccc(-c4coc(C(C)C)n4)c3)C(=O)[C@H]3CC[C@H](OC(=O)N4CC(O)C4)CC3)CC2)nc1C#N [Compound 7.74, trans-4-(((trans-4-(6-Cyano-5-methoxypyridin-2-yl)cyclohexyl)methyl)(3-(2-isopropyloxazol-4-yl)phenyl)carbamoyl)cyclohexyl 3-hydroxyazetidine-1-carboxylate] | ≤ 250 |
| COc1ccc([C@H]2CC[C@H](CN(c3cc(-c4coc(C5CC5)n4)ccn3)C(=O)[C@H]3CC[C@H](OC(=O)N4CCC4)CC3)CC2)nc1C [Compound 7.75, trans-4-((4-(2-Cyclopropyloxazol-4-yl)pyridine-2-yl)((trans-4-(5-methoxy-6-methylpyridin-2-yl)cyclohexyl)methyl)carbamoyl)cyclohexyl azetidine-1-carboxylate] | ≤ 250 |
| COc1ccc([C@H]2CC[C@H](CN(c3cc(-c4coc(C5CC5)n4)ccn3)C(=O)[C@H]3CC[C@H](OC(=O)N4CC(OC)C4)CC3)CC2)nc1C [Compound 7.76, trans-4-((4-(2-Cyclopropyloxazol-4-yl)pyridine-2-yl)((trans-4-(5-methoxy-6-methylpyridin-2-yl)cyclohexyl)methyl)carbamoyl)cyclohexyl 3-methoxyazetidine-1-carboxylate] | ≤ 250 |
